Data set [1] relates to BXPC-3 pancreatic tumor cells transfected with AdCMVCD. Nature of the data set: MRS of 5-FC to 5-FU conversion in vitro. The format is cell-based, human. Particulars: after 120 minutes; 3.8 mM 5-FC. Here is the method:
In vitro models of molecular chemotherapy were developed using the AdCMVCD cytosine deaminase toxin gene for the transfection of both human pancreatic and colon cancer cell lines (BXPC-3, WiDR, LS174T). […] In this study, an in vitro treatment model was proposed using 3×10^6 BXPC-3 pancreatic tumor cells transfected at a MOI of 100 with AdCMVCD. These cells were then examined by MRS at 0, 2, 6 and 24 hours for conversion of 5-FC to 5-FU.
Initial studies have shown the sensitivity of fluorine spectroscopy by its ability to detect 3.8 mM 5-FC when initially added to transfected BXPC-3 cells. […] However, after 120 minutes, the signal for 5-FC had dropped to 50% of its original intensity and the signal for 5-FU had increased to approximately 40% of the original 5-FC signal indicating conversion of 5-FC to 5-FU.

Data set [2] has as its system WiDr human colon cancer cells. Nature of the data set: Radiation dose response, colony formation after Ad infection and 5-FC. The format is cell-based. The following applies: No Viral Infection, 20 mg/ml 5-FC. Here is the method:
WiDr human colon cancer cells were plated at a density of 5×10^5 cells/well in 6-well tissue culture plates 24 hours prior to adenoviral infection. WiDr cells were then infected with AdCMVCD at a multiplicity of infection (MOI) of 1 or 10 plaque forming units (pfu) per cell in 0.5 ml Opti-Mem (Gibco-BRL) for 1.5 hours. A control virus that encodes the reporter gene E. coli LacZ which produces β-galactosidase (AdCMVLacZ) was provided by Dr. De-Chu Tang. Viral infection was stopped by the addition of 3 ml of complete growth media and the cells were returned to the incubator overnight. The following day, media was replaced with media supplemented with the appropriate concentration of 5-FC or no drug. The cells were then incubated in 5-FC for 3 days. The cells were then mock irradiated or irradiated on ice using a Picker ^60Co therapy unit (Cleveland, Ohio) at a dose rate of 80 cGy/min. The cells were then plated for colony formation. Colonies formed in 14 days and were fixed in ethanol and stained with 1% crystal violet.
SK-ChA-1 cells were infected with 10 MOI of AdCMVCD, or AdCMVLacZ, treated with 0, 10 or 20 μg/ml 5-FC for 72 hours, then irradiated with 0 or 8 Gy (80 cGy/min). The cells were irradiated on ice, then trypsinized, counted and plated in triplicate in 25 cm^2 tissue culture dishes (Costar) in media free of 5-FC. The plates were fixed and stained 14 days later. For both WiDr and SK-ChA-1 cells, colonies containing greater than 50 cells were counted. Percent survival was calculated as the average number of colonies counted divided by the number of cells plated times plating efficiency (PE); where PE was the fraction of colonies counted divided by cells plated without radiation. The dose response curve was fitted using the Fit v 2.4 software (provided by Dr. N. Albright, University of California at San Francisco, San Francisco, Calif.).

Data set [3] concerns Intracranial D54MG gliomas. Nature of the data set: Survival, intracranial glioma, HSV and 5-FC. The format is in vivo, athymic nude mice. The following applies: saline and 5-FC. Here is the method:
Two days later, mice were begun on twice daily intraperitoneal injections of saline (1 ml) or 5-FC (500 mg/kg). Mice were followed for survival.
Studies were undertaken to determine the efficacy of the HSV construct, M012, in in vivo murine glioma models. […] The median survival of animals receiving saline plus 5-FC was 34 days. In a similar study with the D54MG intracranial model, median survival of mice injected intratumorally with M012 and administered 5-FC was 40 days, compared to 27 days with M012 plus saline and 19 days with saline and 5-FC (FIG. 14).

Data set [4] has as its system MIA PaCa-2. Nature of the data set: Crystal violet cytotoxicity assay (5-FU, or 5-FC after Ad infection). It counts as cell-based. The following applies: Homo sapiens, 120 h, 5 days. The text has this:
(§1) Twenty-four hours later cells were infected with AdbCD-D314A or AdbCDwt at various MOI.

For data set [5], the system named is PANC-1. Described as above. It counts as cell-based. Particulars: Homo sapiens, 120 h, 5 days.
From the text: as §1

Data set [6] relates to S2-VP10. The description is as above. The format is cell-based. The following applies: Homo sapiens, 120 h, 5 days.
From the text: as §1

Data set [7] concerns U87MG. The description is as above. The following applies: Homo sapiens, U-87 MG, 120 h, 5 days. The format is cell-based.
From the text: as §1

The subject of data set [8] is Panc2.03. The data set is described as above. The format is cell-based. Particulars: Homo sapiens, Panc203, 120 h, 5 days.
From the text: as §1

Data set [9] deals with S2-013. Described as above. It counts as cell-based. The following applies: Homo sapiens, 120 h, 5 days.
From the text: as §1

For data set [10], the system named is D54MG. The description is as above. Particulars: Homo sapiens, 120 h, 5 days. The format is cell-based.
From the text: as §1

Data set [11] relates to BXPC-3. Described as above. It counts as cell-based. The following applies: Homo sapiens, 120 h, 5 days.
From the text: as §1

Data set [12] deals with U251MG. The description is as above. The following applies: Homo sapiens, U-251, 120 h, 5 days. It counts as cell-based.
From the text: as §1

Data set [13] deals with Neuro-2a murine neuroblastoma cells. Nature of the data set: HSV replication in vitro, plaque titration on Vero cells. It counts as cell-based. The following applies: 50 μM 5-FU in growth medium; first evident at 48 h post-infection. Here is the method:
M012 replication was compared to R3659 replication over time in murine Neuro-2a tumor cells at both high (5.0) and low (0.1) MOI. Infected cells were grown in either growth medium alone or growth medium containing 5-FC (500 μM) or 5-FU (50 μM) by determining viral titers at 12, 24, 48, 72, and 96 h post-infection in the presence or absence of 500 μM 5-FC or 50 μM 5-FU. Virus recovery at the different time points was determined by titering on Vero cells. Experiments were performed in duplicate. Inhibition was most significant at high MOI, with P=0.002.
To establish replication competence of M012 in murine tumor cell lines in vitro, Neuro-2a murine neuroblastoma cells were infected with either the parent Dg134.5 HSV, R3659, or M012 using a low (0.1) or high (5.0) MOI. To determine if high concentrations of 5-FC might interfere with HSV replication, cells were incubated in the presence of either 500 μM 5-FC or 50 μM 5-FU, or media alone and infected cells were harvested at 12, 24, 48, 72, and 96 h post-infection. Total PFU recovered at each time point was determined by plaque titration on Vero cells (FIG. 9). At both MOI, M012 replication in DMEM alone was similar to its parent virus, R3659. […] The addition of 5-FC to the growth medium following infection inhibited M012 replication, but had no effect on R3659 replication at either MOI. […]

Values after ≈ are worked out from the molar mass of the structure shown.

With `Nc1nc(=O)[nH]cc1F` [5-FC, 5-fluorocytosine], the “5-FC MRS signal, % of its original intensity” value in [1] came to 50%. In [2], the “Linear Quadratic Parameters a” value is recorded as 0, the “Linear Quadratic Parameters al” value is 0, the “Linear Quadratic Parameters b” value is 0.04 and the “Single Hit Multiple Target Do” value is 1.760. Also, the “Single Hit Multiple Target Dq” value in [2] is 3.679. For the same compound, the median survival in [3] is on record as 19 days.

Consider `O=c1[nH]cc(F)c(=O)[nH]1` [5-FU, 5-fluorouracil], for which the IC50 in data set [4] was 1.4 µg/mL (≈ 10.8 µM); in data set [5] it was 1.5 ± 0.5 µg/mL (≈ 11.5 µM); in data set [6], 2.7 ± 0.1 µg/mL (≈ 20.8 µM); in [7] it was 0.9 ± 0.5 µg/mL (≈ 6.92 µM); in data set [8], 12.4 µg/mL (≈ 95.3 µM); in data set [9], 0.5 ± 0.1 µg/mL (≈ 3.84 µM). In addition, the IC50 in data set [10] was determined as 3.9 ± 0.8 µg/mL (≈ 30 µM); in data set [11] it was 0.1 µg/mL (≈ 0.769 µM); in [12], 2.5 ± 1.2 µg/mL (≈ 19.2 µM). The “5-FU MRS signal, % of the original 5-FC signal” value in data set [1] is “approximately 40%”. The “reduction in replication of M012 or R3659” value in data set [13] is given as 1.0-2.0 log.

Values taken from patent publication US20070225245A1, “Viral vector driven mutant bacterial cytosine deaminase gene and uses thereof” (priority 1998, published 2007).
